According to PubChem BioAssay AID248 (DTP/NCI, 2004):
Values joined by “and” are separate entries in the source; they are usually repeats but may differ in a detail not shown here. Identical values can stand only once. Inconclusive results and toxic doses are left out. Rule as the data show it: active = T/C of 150% or more; inactive = T/C below 125%.

Test system: L1210 leukemia ip in BDF1 mice, survival T/C
Test: NCI In Vivo Anticancer Drug Screen. Data for tumor model L1210 Leukemia (intraperitoneal) in B6D2F1 (BDF1) mice
Settings: endpoint: mean survival time, higher = longer survival
In short: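 In this screen, tumor-bearing mice given compound are compared to those given vehicle, and their survival values are reported as a treated-to-control quotient.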

[1] = dose: 100.0 mg/kg/injection, schedule: Q01DX009 (ip), vehicle: Klucel (hydroxypropylcellulose) (HPC)
[2] = dose: 100.0 mg/kg/injection, schedule: Q04DX003 (ip), vehicle: Klucel (hydroxypropylcellulose) (HPC)
[3] = dose: 200.0 mg/kg/injection, schedule: Q01DX009 (ip), vehicle: Klucel (hydroxypropylcellulose) (HPC)
[4] = dose: 200.0 mg/kg/injection, schedule: Q04DX003 (ip), vehicle: Klucel (hydroxypropylcellulose) (HPC)
[5] = dose: 400.0 mg/kg/injection, schedule: Q01DX009 (ip), vehicle: Klucel (hydroxypropylcellulose) (HPC)
[6] = dose: 400.0 mg/kg/injection, schedule: Q04DX003 (ip), vehicle: Klucel (hydroxypropylcellulose) (HPC)
[7] = dose: 100.0 mg/kg/injection, schedule: Q04DX003 (ip), vehicle: saline
[8] = dose: 200.0 mg/kg/injection, schedule: Q04DX003 (ip), vehicle: saline
[9] = dose: 400.0 mg/kg/injection, schedule: Q04DX003 (ip), vehicle: saline

Measured: T/C

N#C/C(=C\C=C\c1ccccc1)c1cccc(Cl)c1
inactive: dose: 87.5 mg/kg/injection, schedule: Q01DX009 (ip), vehicle: Klucel (hydroxypropylcellulose) (HPC) 89 % of control | dose: 175.0 mg/kg/injection, schedule: Q01DX009 (ip), vehicle: Klucel (hydroxypropylcellulose) (HPC) 92 % of control | dose: 350.0 mg/kg/injection, schedule: Q01DX009 (ip), vehicle: Klucel (hydroxypropylcellulose) (HPC) 101 % of control

CCCCCCC[CH2][Sn]([CH2]CCCCCCC)([NH]S(=O)(=O)c1ccc(C)cc1)[NH]S(=O)(=O)c1ccc(C)cc1
inactive: dose: 18.75 mg/kg/injection, schedule: Q01DX009 (ip), vehicle: saline sonified 102 % of control | dose: 37.5 mg/kg/injection, schedule: Q01DX009 (ip), vehicle: saline sonified 86 % of control | dose: 75.0 mg/kg/injection, schedule: Q04DX003 (ip), vehicle: Klucel (hydroxypropylcellulose) (HPC) 107 % of control

Cc1cc2c(cc1C)NC(=O)CC(=O)N2
inactive: [1] 96 % of control and 97 % of control | [2] 92 % of control | [3] 86 % of control | [4] 100 % of control | [5] 89 % of control | [6] 89 % of control

Nc1cc(S(=O)(=O)O)cc2ccc(S(=O)(=O)O)cc12
inactive: dose: 100.0 mg/kg/injection, schedule: Q01DX009 (ip), vehicle: saline 102 % of control | [7] 111 % of control | dose: 200.0 mg/kg/injection, schedule: Q01DX009 (ip), vehicle: saline 96 % of control | [8] 101 % of control | dose: 400.0 mg/kg/injection, schedule: Q01DX009 (ip), vehicle: saline 102 % of control | [9] 93 % of control

OCC(Oc1ccccc1)C(O)C(O)C(CO)Oc1ccccc1 (stereo not drawn)
inactive: [1] 103 % of control | [3] 103 % of control | [5] 95 % of control

CC(C)(CCC(=S)N1CCOCC1)c1ccccc1
inactive: [2] 101 % of control | [4] 102 % of control | [6] 102 % of control

O=C(NCCCOc1ccc([N+](=O)[O-])cc1)OCc1ccccc1
inactive: [2] 109 % of control | [4] 107 % of control

CC1(C)CC(=O)C=C(NC2CCCCC2)C1
inactive: dose: 50.0 mg/kg/injection, schedule: Q01DX009 (ip), vehicle: saline sonified 94 % of control | dose: 100.0 mg/kg/injection, schedule: Q01DX009 (ip), vehicle: saline sonified 103 % of control | [2] 96 % of control | dose: 200.0 mg/kg/injection, schedule: Q01DX009 (ip), vehicle: saline sonified 92 % of control | [4] 98 % of control

c1ccc(CSCc2ccccc2)cc1
inactive: dose: 50.0 mg/kg/injection, schedule: Q01DX009 (ip), vehicle: Klucel (hydroxypropylcellulose) (HPC) 97 % of control | [1] 105 % of control | dose: 100.0 mg/kg/injection, schedule: Q04DX002 (ip), vehicle: Klucel (hydroxypropylcellulose) (HPC) 105 % of control | dose: 100.0 mg/kg/injection, schedule: Q04DX003 (ip), vehicle: saline with Tween-80 96 % of control | [3] 102 % of control and 86 % of control | dose: 200.0 mg/kg/injection, schedule: Q04DX002 (ip), vehicle: Klucel (hydroxypropylcellulose) (HPC) 105 % of control | dose: 200.0 mg/kg/injection, schedule: Q04DX003 (ip), vehicle: saline with Tween-80 104 % of control | [5] 86 % of control | dose: 400.0 mg/kg/injection, schedule: Q04DX002 (ip), vehicle: Klucel (hydroxypropylcellulose) (HPC) 105 % of control | dose: 400.0 mg/kg/injection, schedule: Q04DX003 (ip), vehicle: saline with Tween-80 96 % of control

COC(=O)COc1ccc(Cl)cc1Cl
inactive: dose: 100.0 mg/kg/injection, schedule: Q04DX002 (ip), vehicle: saline 100 % of control | dose: 200.0 mg/kg/injection, schedule: Q04DX002 (ip), vehicle: saline 107 % of control | dose: 400.0 mg/kg/injection, schedule: Q04DX002 (ip), vehicle: saline 100 % of control

COC(=O)/C=C(/Oc1cccc(C)c1)C(=O)OC
inactive: dose: 100.0 mg/kg/injection, schedule: Q04DX003 (ip), vehicle: other 101 % of control | dose: 200.0 mg/kg/injection, schedule: Q04DX003 (ip), vehicle: other 96 % of control | dose: 400.0 mg/kg/injection, schedule: Q04DX003 (ip), vehicle: other 96 % of control

CN(C)C(=O)Sc1cc(Cl)c(Cl)cc1Cl
inactive: dose: 87.0 mg/kg/injection, schedule: Q01DX001 (ip), vehicle: Klucel (hydroxypropylcellulose) (HPC) 92 % of control | dose: 175.0 mg/kg/injection, schedule: Q01DX001 (ip), vehicle: Klucel (hydroxypropylcellulose) (HPC) 92 % of control | dose: 350.0 mg/kg/injection, schedule: Q01DX001 (ip), vehicle: Klucel (hydroxypropylcellulose) (HPC) 94 % of control

CC1(C#N)CC/C(=C\c2ccc3c(c2)OCO3)C(=O)C1 (stereo not drawn)
inactive: [7] 96 % of control | [8] 91 % of control | [9] 107 % of control
